Measured values: PubChem BioAssay (NCI)
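A five-concentration, 48-hour dose response in 96-well plates underlies each endpoint, interpolated linearly between surrounding concentrations. TGI is the concentration that stops growth completely.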

Assays:
Experiment in all cases: DTP human tumour cell line panel, 48 h
[1] = test system: TK-10 renal
[2] = test system: MCF7 breast
[3] = test system: U251 CNS
[4] = test system: IGROV1 ovarian
[5] = test system: OVCAR-5 ovarian
[6] = test system: NCI-H226 lung
[7] = test system: NCI/ADR-RES ovarian
[8] = test system: SK-MEL-5 melanoma
[9] = test system: SF-295 CNS
[10] = test system: HOP-92 NSCLC
[11] = test system: MDA-MB-231 breast
[12] = test system: BT-549 breast
[13] = test system: SNB-19 CNS
[14] = test system: SF-268 CNS
[15] = test system: OVCAR-8 ovarian
[16] = test system: T-47D breast
[17] = test system: A549 NSCLC
[18] = test system: A498 renal
[19] = test system: HT29 colon
[20] = test system: SR leukemia
[21] = test system: HL-60(TB) leukemia
[22] = test system: M14 melanoma
[23] = test system: HCC-2998 colon
[24] = test system: UACC-62 melanoma
[25] = test system: NCI-H23 lung
[26] = test system: OVCAR-3 ovarian
[27] = test system: MALME-3M melanoma
[28] = test system: K-562 leukemia
[29] = test system: PC-3 prostate
[30] = test system: SF-539 CNS
[31] = test system: EKVX NSCLC
[32] = test system: MDA-N
[33] = test system: NCI-H460 lung
[34] = test system: MDA-MB-435
[35] = test system: SK-OV-3 ovarian
[36] = test system: ACHN renal
[37] = test system: RPMI-8226 leukemia
[38] = test system: CCRF-CEM leukemia
[39] = test system: SNB-75 CNS
[40] = test system: UO-31 renal
[41] = test system: COLO 205 colon
[42] = test system: HS 578T breast
[43] = test system: UACC-257 melanoma
[44] = test system: HCT-116 colon
[45] = test system: CAKI-1 renal
[46] = test system: SN12C renal
[47] = test system: DU-145 prostate
[48] = test system: 786-0 renal
[49] = test system: RXF 393 renal
[50] = test system: KM12 colon
[51] = test system: MOLT-4 leukemia
[52] = test system: HOP-62 NSCLC
[53] = test system: OVCAR-4 ovarian
[54] = test system: SK-MEL-2 melanoma
[55] = test system: NCI-H522 lung
[56] = test system: HCT-15 colon
[57] = test system: LOX IMVI melanoma
[58] = test system: SK-MEL-28 melanoma
[59] = test system: SW-620 colon
[60] = test system: DLD-1 colon
[61] = test system: HOP-18 NSCLC
[62] = test system: DMS 273 small cell lung
[63] = test system: LXFL 529 NSCLC
[64] = test system: KM20L2 colon
[65] = test system: M19-MEL melanoma

Structure (SMILES): O=C1c2ccccc2C(=O)c2c1sc1nc3ccccc3n21
- TGI [1]: 12.7 µM
- TGI [2]: 3.84 µM
- TGI [3]: 9.37 µM
- TGI [4]: 6.34 µM
- TGI [5]: 4.28 µM
- TGI [6]: 21.2 µM
- TGI [7]: 4.7 µM
- TGI [8]: 43.3 µM
- TGI [9]: 3.04 µM
- TGI [10]: 74.1 µM
- TGI [11]: 9.12 µM
- TGI [12]: 3.45 µM
- TGI [13]: 4.42 µM
- TGI [14]: 3.9 µM
- TGI [15]: 3.82 µM
- TGI [16]: 9.02 µM
- TGI [17]: 25.1 µM
- TGI [18]: 23.3 µM
- TGI [19]: 13.8 µM
- TGI [20]: > 100 µM
- TGI [21]: > 100 µM
- TGI [22]: 3.15 µM
- TGI [23]: 3.79 µM
- TGI [24]: 3.51 µM
- TGI [25]: 3.74 µM
- TGI [26]: 9.34 µM
- TGI [27]: 1.6 µM
- TGI [28]: 5.09 µM
- TGI [29]: 6.79 µM
- TGI [30]: 3.81 µM
- TGI [31]: 4.6 µM
- TGI [32]: 3.49 µM
- TGI [33]: 3.66 µM
- TGI [34]: 4.37 µM
- TGI [35]: 19.1 µM
- TGI [36]: 6.27 µM
- TGI [37]: 5.26 µM
- TGI [38]: 5.48 µM
- TGI [39]: 46.1 µM
- TGI [40]: 3.89 µM
- TGI [41]: 3.61 µM
- TGI [42]: 0.0525 µM
- TGI [43]: 3.64 µM
- TGI [44]: 3.25 µM
- TGI [45]: 4.27 µM
- TGI [46]: 2.85 µM
- TGI [47]: 3.13 µM
- TGI [48]: 4.46 µM
- TGI [49]: 3.31 µM
- TGI [50]: 3.91 µM
- TGI [51]: 4.89 µM

Structure (SMILES): CCC1=C(CC2NCCc3cc(OC)c(OC)cc32)CC2c3ccccc3CCN2C1 (configuration not stated)
- TGI [1]: > 100 µM
- TGI [2]: 42.7 µM
- TGI [3]: 27.6 µM
- TGI [4]: > 100 µM
- TGI [5]: > 100 µM
- TGI [6]: 73.6 µM
- TGI [52]: > 100 µM
- TGI [7]: > 100 µM
- TGI [8]: 28 µM
- TGI [9]: 76.3 µM
- TGI [53]: > 100 µM
- TGI [10]: 42.6 µM
- TGI [11]: 74.4 µM
- TGI [12]: > 100 µM
- TGI [54]: 29.2 µM
- TGI [55]: 29.1 µM
- TGI [13]: > 100 µM
- TGI [14]: > 100 µM
- TGI [15]: > 100 µM
- TGI [16]: 54.5 µM
- TGI [17]: > 100 µM
- TGI [18]: 28.5 µM
- TGI [56]: > 100 µM
- TGI [57]: 26.3 µM
- TGI [19]: 20.6 µM
- TGI [20]: 24.1 µM
- TGI [58]: 29 µM
- TGI [21]: 46.5 µM
- TGI [22]: 27.3 µM
- TGI [24]: 28.8 µM
- TGI [26]: > 100 µM
- TGI [27]: 27.7 µM
- TGI [28]: 22 µM
- TGI [29]: 78.3 µM
- TGI [30]: 21.4 µM
- TGI [31]: > 100 µM
- TGI [32]: 27 µM
- TGI [33]: 25.1 µM
- TGI [34]: 25.8 µM
- TGI [35]: > 100 µM
- TGI [36]: > 100 µM
- TGI [37]: 30.4 µM
- TGI [38]: 33.6 µM
- TGI [39]: 87.9 µM
- TGI [40]: 36.3 µM
- TGI [41]: 21.8 µM
- TGI [42]: 49.7 µM
- TGI [43]: 32 µM
- TGI [44]: > 100 µM
- TGI [45]: > 100 µM
- TGI [59]: 37.3 µM
- TGI [46]: > 100 µM
- TGI [47]: > 100 µM
- TGI [48]: 35.6 µM
- TGI [49]: > 100 µM
- TGI [50]: > 100 µM
- TGI [51]: 43.9 µM

Structure (SMILES): C[C@@]12[Se]c3ccccc3[C@]1(C)[Se]c1ccccc12
- TGI [1]: > 100 µM
- TGI [60]: > 100 µM
- TGI [3]: > 100 µM
- TGI [61]: > 100 µM
- TGI [5]: > 100 µM
- TGI [6]: > 100 µM
- TGI [8]: > 100 µM
- TGI [9]: > 100 µM
- TGI [53]: > 100 µM
- TGI [10]: > 100 µM
- TGI [54]: > 100 µM
- TGI [55]: > 100 µM
- TGI [14]: > 100 µM
- TGI [15]: > 100 µM
- TGI [57]: > 100 µM
- TGI [19]: > 100 µM
- TGI [21]: 8.4 µM
- TGI [22]: > 100 µM
- TGI [23]: > 100 µM
- TGI [24]: 7.18 µM
- TGI [25]: > 100 µM
- TGI [62]: > 100 µM
- TGI [26]: > 100 µM
- TGI [27]: > 100 µM
- TGI [28]: > 100 µM
- TGI [31]: > 100 µM
- TGI [63]: > 100 µM
- TGI [36]: > 100 µM
- TGI [37]: > 100 µM
- TGI [38]: > 100 µM
- TGI [41]: > 100 µM
- TGI [64]: > 100 µM
- TGI [44]: > 100 µM
- TGI [45]: > 100 µM
- TGI [59]: > 100 µM
- TGI [46]: > 100 µM
- TGI [65]: > 100 µM
- TGI [48]: > 100 µM
- TGI [50]: > 100 µM
